Consider 18 molecules from patent US20180303807A1, “ANDROGEN RECEPTOR LIGANDS” (DUKE UNIVERSITY, priority 2015, published 2018).

Each structure is given as a SMILES string. Where a chain is given by its changes, count along the chain named.

Common to all, as to type: cell-based
Series [1] has as its target T1, AR (Homo sapiens, UniProt P10275).
T1 construct: expressed in transfected cells; host or cells: CV1 cells
T1 sequence (P10275 1-920): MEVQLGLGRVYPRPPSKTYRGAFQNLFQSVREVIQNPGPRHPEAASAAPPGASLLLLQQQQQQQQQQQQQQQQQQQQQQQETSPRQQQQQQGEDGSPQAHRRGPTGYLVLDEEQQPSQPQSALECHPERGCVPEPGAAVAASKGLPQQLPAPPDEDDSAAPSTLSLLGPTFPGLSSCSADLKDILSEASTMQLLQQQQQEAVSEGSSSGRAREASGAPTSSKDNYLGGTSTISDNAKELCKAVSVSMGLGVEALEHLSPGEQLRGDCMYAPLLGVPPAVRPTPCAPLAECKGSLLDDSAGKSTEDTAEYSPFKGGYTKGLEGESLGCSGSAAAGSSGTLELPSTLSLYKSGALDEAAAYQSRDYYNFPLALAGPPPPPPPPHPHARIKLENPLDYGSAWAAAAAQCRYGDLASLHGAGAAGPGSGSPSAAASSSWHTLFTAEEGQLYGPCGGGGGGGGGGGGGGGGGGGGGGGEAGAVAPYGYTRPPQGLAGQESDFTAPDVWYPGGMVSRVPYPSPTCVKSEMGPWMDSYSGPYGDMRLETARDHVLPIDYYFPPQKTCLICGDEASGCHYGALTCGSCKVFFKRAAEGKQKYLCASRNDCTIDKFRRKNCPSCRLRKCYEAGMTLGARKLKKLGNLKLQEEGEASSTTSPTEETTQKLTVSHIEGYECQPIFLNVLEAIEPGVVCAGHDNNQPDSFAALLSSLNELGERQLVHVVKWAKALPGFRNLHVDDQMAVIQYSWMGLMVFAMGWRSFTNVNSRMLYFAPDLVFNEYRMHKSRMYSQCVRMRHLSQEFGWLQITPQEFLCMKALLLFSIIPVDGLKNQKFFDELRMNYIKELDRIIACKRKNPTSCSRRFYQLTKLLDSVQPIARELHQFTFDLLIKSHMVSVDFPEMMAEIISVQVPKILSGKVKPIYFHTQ
Description: Reporter gene assay, AR transcriptional (MMTV-Luc) in CV1 cells. The settings on record: pcDNA-AR + MMTV-Luc, 0.1 nM R1881 plus test compound, 24 hrs, read-out: B1 = AR transcriptional IC50 (μM) in CV1 cells. How it is done: (§1) Reporter Gene Assay (IC50 determination, Table 2, B1-B3). CV1 cells were seeded into 96-well cell culture plates and transfected with Lipofectin. For AR transcriptional assays, the DNA mixture consisted of pcDNA-AR, MMTV-Luc (androgen responsive reporter gene), and Renilla-Luc (for assessing transfection efficiency and toxicity). Following overnight incubation, cells were induced with hormone (0.1 nM R1881 (synthetic AR agonist) plus increasing concentrations of test compound) for 24 hrs. Cells were lysed and luciferase activity was quantified using Dual Luciferase Reagent (DLR). IC50 determination was assessed using GraphPad Prism software.

For series [2], the target named is T2, AR (Homo sapiens, UniProt P10275, T878A).
T2 construct: endogenous in cells; host or cells: LNCaP cells
T2 sequence (P10275 1-920 T878A): T1 sequence (P10275 1-920) with T878A
Briefly: In Cell Western AR degradation assay in LNCaP cells. The settings on record: 18 hrs, greater than 50% degradation at 10 μM (method says 20 μM). How it is done: In Cell Western (AR degradation Assay, Table 2, B10). LNCaP cells were plated in 96-well clear bottom black plates (20K cells/well) in RPMI supplemented with 8% CFS. Following 48 hr incubation, cells were treated with hormone (20 μM test compound) for 18 hrs. Cells were fixed with formaldehyde (3.7%) and permeabilized using PBS (0.1% TRITON X-100). Cells were incubated with anti-AR antibody (N20, 1:2000), washed with PBS (0.1% Tween), and stained with 2nd antibody (Biotium CF770 goat anti-rabbit, 1:2000). AR protein expression was assessed using the LI-COR Odyssey imaging system. DRAQ5 (DNA stain, 1:10,000, Thermo Scientific) was used to normalize AR protein expression.
For B4-B7, scoring system is based on the relative AR target gene agonist/antagonist activity of test compounds when compared to benchmark compounds enzalutamide or bicalutamide. […] The lack of agonist activity is desirable for therapies intended to treat CRPC. For B4 and B6, a score of 1 indicates less agonism (highly desired activity) than benchmark compound enzalutamide, a score of 2 indicates equal agonism to enzalutamide (desirable), a score of 3 indicates agonism between enzalutamide and bicalutamide (less desirable activity), a score of 4 indicates equal agonism to bicalutamide (liability), and a score of 5 indicates higher agonism than bicalutamide (liability). For B5 and B7 a score of 1 indicates higher antagonist efficacy (highly desired activity) than benchmark compound enzalutamide, a score of 2 indicates equal antagonist efficacy to enzalutamide (desirable), a score of 3 indicates antagonist efficacy between enzalutamide and bicalutamide (less desirable activity), a score of 4 indicates antagonist efficacy equal to bicalutamide (liability), and a score of 5 indicates antagonist efficacy worse than bicalutamide (liability) For B9, Compounds that degrade AR (greater than 50% degradation at 10 μM) are indicated.

Another series deals with CV1 cells. Description: Toxicity of test compound in the CV1 reporter gene assay (Renilla-Luc). The protocol: as §1
On the technique in general: Reporter assays use an easily measured gene product as a stand-in for the process of interest.

Take `CC1(C)CC(=O)C2=C(C1)Nc1ccc3cnccc3c1C2c1ccc(F)c(F)c1` (racemic) [Compound A91, (±)-12-(3,4-difluorophenyl)-9,9-dimethyl-8,9,10,12-tetrahydrobenzo[j][3,7]phenanthrolin-11(7H)-one]: the IC50 (in general, the concentration needed to halve the response being measured) on AR [1] was 1.4 µM. Moreover, the “B9 = AR degradation in LNCaP cells (In-Cell Western)” value (shortened to “B9 = AR degradation in LNCaP cells”) at AR [2] is “Degrader (Compounds that degrade AR (greater than 50% degradation at 10 μM) are indicated)”.
In the case of `CC1(C)CC(=O)C2=C(C1)Nc1ccc3ncncc3c1C2c1ccc(Br)s1` (racemic) [Compound A102, (±)-12-(5-bromothiophen-2-yl)-9,9-dimethyl-8,9,10,12-tetrahydropyrimido[5,4-a]acridin-11(7H)-one], the IC50 at AR [1] was determined as 0.4 µM. Besides, the “B9 = AR degradation in LNCaP cells” value on AR [2] was “Degrader (Compounds that degrade AR (greater than 50% degradation at 10 μM) are indicated)”.
In the case of `CC1(C)CC(=O)C2=C(C1)Nc1ccc3ncccc3c1C2c1ccc(Cl)cc1Cl` (racemic) [Compound A88, (±)-12-(2,4-dichlorophenyl)-9,9-dimethyl-8,9,10,12-tetrahydrobenzo[b][4,7]phenanthrolin-11(7H)-one], the IC50 at AR [1] came to 1.1 µM. Further, the “B9 = AR degradation in LNCaP cells” value on AR [2] is “Degrader (Compounds that degrade AR (greater than 50% degradation at 10 μM) are indicated)”.
As to `CC1(C)CC(=O)C2=C(C1)Nc1ccc3ncccc3c1C2c1ccc(Cl)c([N+](=O)[O-])c1` (centres unmarked) [Compound A5], the IC50 at AR [1] came to 3.3 µM. Besides, in the series on CV1 cells, the “B2 = % Toxicity of test compound (20 μM)” value was determined as 24% and the “B3 = % Toxicity of test compound (60 μM)” value stood at 68%.
In the case of `CC1(C)CC(=O)C2=C(C1)Nc1ccc3ncccc3c1C2c1sccc1Br` (centres unmarked) [Compound A62], at AR [1], the IC50 was greater than 10 µM. The “B9 = AR degradation in LNCaP cells” value on AR [2] is given as “Degrader (Compounds that degrade AR (greater than 50% degradation at 10 μM) are indicated)”.
For the molecule `CC1(C)CC(=O)C2=C(C1)Nc1ccc3c(c1C2c1ccc(F)c(F)c1)OCO3` (centres unmarked) [Compound A59], the IC50 on AR [1] was greater than 10 µM. For the same molecule, the “B9 = AR degradation in LNCaP cells” value at AR [2] is given as “Degrader (Compounds that degrade AR (greater than 50% degradation at 10 μM) are indicated)”.
`CC1(C)CC(=O)C2=C(C1)Nc1ccc3ccccc3c1C2c1ccc(-c2nnc(N)s2)cc1` (centres unmarked) [Compound A19]: on AR [1], the IC50 was greater than 10 µM. For the same molecule, in the series on CV1 cells, the “B2 = % Toxicity of test compound (20 μM)” value is 0% and the “B3 = % Toxicity of test compound (60 μM)” value was determined as 87%.
Take `O=[N+]([O-])c1ccc(C2C3=C(CCCC3)Nc3ccc4ccccc4c32)cc1` (centres unmarked) [Compound A25]: the IC50 at AR [1] was greater than 10 µM. Also, in the series on CV1 cells, the “B2 = % Toxicity of test compound (20 μM)” value is 23% and the “B3 = % Toxicity of test compound (60 μM)” value worked out at 42%.
Turning to `CC1(C)CC(=O)C2=C(C1)Nc1ccc3ccccc3c1C2c1c[nH]c2ccccc12` (centres unmarked) [Compound A14], the IC50 at AR [1] is greater than 10 µM. Further, in the series on CV1 cells, the “B2 = % Toxicity of test compound (20 μM)” value is given as 0% and the “B3 = % Toxicity of test compound (60 μM)” value is reported as 0%.
As for `CC1(C)CC(=O)C2=C(C1)Nc1ccc3ccccc3c1C2c1cc([N+](=O)[O-])c(O)cc1Cl` (centres unmarked) [Compound A16], the IC50 on AR [1] is greater than 10 µM. Further, in the series with CV1 cells, the “B2 = % Toxicity of test compound (20 μM)” value is listed as 0% and the “B3 = % Toxicity of test compound (60 μM)” value was 0%.
For the molecule `Cc1n[nH]c2c1C(c1ccc([N+](=O)[O-])cc1)C1=C(N2)C(C)(C)CCC1=O` (centres unmarked) [Compound A23], the IC50 on AR [1] is greater than 10 µM. Moreover, in the series on CV1 cells, the “B2 = % Toxicity of test compound (20 μM)” value came out at 0% and the “B3 = % Toxicity of test compound (60 μM)” value worked out at 0%.
Consider `CC1(C)CC(=O)C2=C(C1)Nc1ccc3ccccc3c1C2c1cccnc1` (centres unmarked) [Compound A13], for which the IC50 on AR [1] was determined as 12 µM. Also, in the series with CV1 cells, the “B2 = % Toxicity of test compound (20 μM)” value was found to be 0% and the “B3 = % Toxicity of test compound (60 μM)” value was 78%.
`O=C1CCCC2=C1C(c1ccco1)c1c(ccc3ccccc13)N2` (centres unmarked) [Compound A17]: the IC50 on AR [1] is greater than 10 µM. Moreover, in the series with CV1 cells, the “B2 = % Toxicity of test compound (20 μM)” value is 0% and the “B3 = % Toxicity of test compound (60 μM)” value stood at 36%.
For `O=C1CCCC2=C1C(c1ccc(O)cc1)c1c(ccc3ccccc13)N2` (centres unmarked) [Compound A20], at AR [1], the IC50 was greater than 10 µM. Further, in the series with CV1 cells, the “B2 = % Toxicity of test compound (20 μM)” value was 0% and the “B3 = % Toxicity of test compound (60 μM)” value is listed as 0%.
In the case of `O=C1CCCC2=C1C(c1ccc3c(c1)OCO3)c1c(ccc3ccccc13)N2` (centres unmarked) [Compound A15], the IC50 on AR [1] was greater than 10 µM. In the series with CV1 cells, the “B2 = % Toxicity of test compound (20 μM)” value came to 0% and the “B3 = % Toxicity of test compound (60 μM)” value was 0%.
`O=C1CCCC2=C1C(c1cccc([N+](=O)[O-])c1)c1c(ccc3ccccc13)N2` (centres unmarked) [Compound A21]: the IC50 on AR [1] is greater than 10 µM. In the series with CV1 cells, the “B2 = % Toxicity of test compound (20 μM)” value amounted to 0% and the “B3 = % Toxicity of test compound (60 μM)” value is reported as 28%.
On to `CC1(C)CC(=O)C2=C(C1)Nc1ccc3ncccc3c1C2c1ccc(O)cc1` (centres unmarked) [Compound A24], for which the IC50 at AR [1] was greater than 10 µM. In addition, in the series on CV1 cells, the “B2 = % Toxicity of test compound (20 μM)” value is recorded as 0% and the “B3 = % Toxicity of test compound (60 μM)” value came to 35%.
As to `CC1(C)CC2=C(C(c3ccc(F)c(F)c3)c3c(ccc4ncccc34)N2)S(=O)(=O)C1` (racemic) [Compound A53, (±)-12-(3,4-difluorophenyl)-9,9-dimethyl-8,9,10,12-tetrahydro-7H-thiopyrano[2,3-b][4,7]phenanthroline 11,11-dioxide], the IC50 at AR [1] is greater than 10 µM.
